Reference: US10711002B2, “Purine compounds and method for the treatment of cancer” (THE ROYAL INSTITUTION FOR THE ADVANCEMENT OF …, priority 2016, dated 2020)

What was measured:
Test in all cases: High-throughput kinase assay
Format in all cases: biochemical
PIK3CA/PIK3R1 = PIK3CA/PIK3R1 (Homo sapiens, UniProt P42336); conditions: read-out: Percent inhibition of kinase activity in vitro, PIK3CA/PIK3R1; for inhibition at 0.1 µM: 100 nM; for inhibition at 0.5 µM: 500 nM
Experimental: (§1) Screening of Compounds 1-4 against several kinases identified two prominent targets of these compounds as the Aurora A kinase and calcium dependent protein kinase C isoforms α, βI, βII and […] (Tables 1 to 3). IC50s for these two targets were obtained by plotting inhibition levels at 500 nM, 100 nM, 50 nM and 10 nM (FIG. 3). These kinases are directly involved in pathways controlling cell differentiation programs, metastasis signaling, as well as EMT and CSC programming and their overexpression was reported to predict decreased metastasis-free survival.

PRKD1 (PKC mu) = target: T1, PRKD1 (PKC mu) (Homo sapiens, UniProt Q15139); conditions: 50 nM; read-out: Percent inhibition of kinase activity in vitro, PRKD1 (PKC mu)
T1 sequence (Q15139 1-912): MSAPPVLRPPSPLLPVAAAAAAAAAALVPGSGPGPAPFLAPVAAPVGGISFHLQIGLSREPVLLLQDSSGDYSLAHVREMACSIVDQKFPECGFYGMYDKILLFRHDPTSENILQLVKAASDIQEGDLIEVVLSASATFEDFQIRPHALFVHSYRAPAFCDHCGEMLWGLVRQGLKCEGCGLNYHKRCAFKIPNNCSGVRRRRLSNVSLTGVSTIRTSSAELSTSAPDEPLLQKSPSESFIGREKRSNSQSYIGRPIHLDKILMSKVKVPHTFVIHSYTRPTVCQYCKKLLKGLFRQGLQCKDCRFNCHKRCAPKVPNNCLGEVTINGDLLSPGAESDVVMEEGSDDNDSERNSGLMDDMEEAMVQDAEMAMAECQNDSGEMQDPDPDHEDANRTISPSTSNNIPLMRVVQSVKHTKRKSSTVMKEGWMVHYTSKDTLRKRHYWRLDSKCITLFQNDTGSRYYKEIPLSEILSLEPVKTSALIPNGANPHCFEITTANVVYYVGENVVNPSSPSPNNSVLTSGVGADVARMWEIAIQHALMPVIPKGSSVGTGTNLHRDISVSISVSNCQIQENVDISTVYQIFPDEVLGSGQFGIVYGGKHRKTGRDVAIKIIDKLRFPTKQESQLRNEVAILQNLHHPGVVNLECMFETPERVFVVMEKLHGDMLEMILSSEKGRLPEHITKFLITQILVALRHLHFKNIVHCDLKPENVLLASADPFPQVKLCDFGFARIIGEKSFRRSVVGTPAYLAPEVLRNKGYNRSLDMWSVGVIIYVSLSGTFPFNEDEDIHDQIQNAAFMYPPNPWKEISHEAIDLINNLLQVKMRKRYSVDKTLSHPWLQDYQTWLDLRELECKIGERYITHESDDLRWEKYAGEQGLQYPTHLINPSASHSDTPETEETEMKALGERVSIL
Experimental: as §1

PRKCG (PKC gamma) = PRKCG (PKC gamma) (Homo sapiens, UniProt P05129); conditions: 50 nM; read-out: Percent inhibition of kinase activity in vitro, PRKCG (PKC gamma)
Experimental: as §1

IGF1R = IGF1R (Homo sapiens, UniProt P08069); conditions: read-out: Percent inhibition of kinase activity in vitro, IGF1R; for inhibition at 0.1 µM: 100 nM; for inhibition at 0.5 µM: 500 nM
Experimental: as §1

RAF1 (cRAF) Y340D Y341D = RAF1 (cRAF) Y340D Y341D (Homo sapiens, UniProt P04049, Y340D/Y341D); conditions: 500 nM; read-out: Percent inhibition of kinase activity in vitro, RAF1 (cRAF) Y340D Y341D
Experimental: as §1

LCK = LCK (Homo sapiens, UniProt P06239); conditions: read-out: Percent inhibition of kinase activity in vitro, LCK; for inhibition at 0.1 µM: 100 nM; for inhibition at 0.5 µM: 500 nM
Experimental: as §1

SYK = SYK (Homo sapiens, UniProt P43405); conditions: read-out: Percent inhibition of kinase activity in vitro, SYK; for inhibition at 0.1 µM: 100 nM; for inhibition at 0.5 µM: 500 nM
Experimental: as §1

AURKC (Aurora C) = target: T2, AURKC (Aurora C) (Homo sapiens, UniProt Q9UQB9); conditions: read-out: Percent inhibition of kinase activity in vitro, AURKC (Aurora C); for inhibition at 0.1 µM: 100 nM; for inhibition at 0.5 µM: 500 nM
T2 sequence (Q9UQB9 1-309): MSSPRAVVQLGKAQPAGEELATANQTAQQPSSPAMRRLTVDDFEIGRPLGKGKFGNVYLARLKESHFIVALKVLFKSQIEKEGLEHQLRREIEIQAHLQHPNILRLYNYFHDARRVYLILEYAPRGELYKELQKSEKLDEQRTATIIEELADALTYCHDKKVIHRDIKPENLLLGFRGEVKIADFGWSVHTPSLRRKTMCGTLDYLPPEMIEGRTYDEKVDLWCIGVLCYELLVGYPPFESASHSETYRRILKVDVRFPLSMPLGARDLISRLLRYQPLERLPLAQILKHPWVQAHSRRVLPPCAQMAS
Experimental: as §1

PRKCQ (PKC theta) = PRKCQ (PKC theta) (Homo sapiens, UniProt Q04759); conditions: 50 nM; read-out: Percent inhibition of kinase activity in vitro, PRKCQ (PKC theta)
Experimental: as §1

FRAP1 (mTOR) = FRAP1 (mTOR) (Homo sapiens, UniProt P42345); conditions: read-out: Percent inhibition of kinase activity in vitro, FRAP1 (mTOR); for inhibition at 0.1 µM: 100 nM; for inhibition at 0.5 µM: 500 nM
Experimental: as §1

YES1 = YES1 (Homo sapiens, UniProt P07947); conditions: read-out: Percent inhibition of kinase activity in vitro, YES1; for inhibition at 0.1 µM: 100 nM; for inhibition at 0.5 µM: 500 nM
Experimental: as §1

ERBB2 (HER2) = ERBB2 (HER2) (Homo sapiens, UniProt P04626); conditions: 500 nM; read-out: Percent inhibition of kinase activity in vitro, ERBB2 (HER2)
Experimental: as §1

PTK2 (FAK) = PTK2 (FAK) (Homo sapiens, UniProt Q05397); conditions: read-out: Percent inhibition of kinase activity in vitro, PTK2 (FAK); for inhibition at 0.1 µM: 100 nM; for inhibition at 0.5 µM: 500 nM
Experimental: as §1

FLT1 (VEGFR1) = FLT1 (VEGFR1) (Homo sapiens, UniProt P17948); conditions: read-out: Percent inhibition of kinase activity in vitro, FLT1 (VEGFR1); for inhibition at 0.1 µM: 100 nM; for inhibition at 0.5 µM: 500 nM
Experimental: as §1

PRKCD (PKC delta) = PRKCD (PKC delta) (Homo sapiens, UniProt Q05655); conditions: 50 nM; read-out: Percent inhibition of kinase activity in vitro, PRKCD (PKC delta)
Experimental: as §1

Chain of RAF1 (cRAF) Y340D Y341D (P04049 whole entry Y340D/Y341D): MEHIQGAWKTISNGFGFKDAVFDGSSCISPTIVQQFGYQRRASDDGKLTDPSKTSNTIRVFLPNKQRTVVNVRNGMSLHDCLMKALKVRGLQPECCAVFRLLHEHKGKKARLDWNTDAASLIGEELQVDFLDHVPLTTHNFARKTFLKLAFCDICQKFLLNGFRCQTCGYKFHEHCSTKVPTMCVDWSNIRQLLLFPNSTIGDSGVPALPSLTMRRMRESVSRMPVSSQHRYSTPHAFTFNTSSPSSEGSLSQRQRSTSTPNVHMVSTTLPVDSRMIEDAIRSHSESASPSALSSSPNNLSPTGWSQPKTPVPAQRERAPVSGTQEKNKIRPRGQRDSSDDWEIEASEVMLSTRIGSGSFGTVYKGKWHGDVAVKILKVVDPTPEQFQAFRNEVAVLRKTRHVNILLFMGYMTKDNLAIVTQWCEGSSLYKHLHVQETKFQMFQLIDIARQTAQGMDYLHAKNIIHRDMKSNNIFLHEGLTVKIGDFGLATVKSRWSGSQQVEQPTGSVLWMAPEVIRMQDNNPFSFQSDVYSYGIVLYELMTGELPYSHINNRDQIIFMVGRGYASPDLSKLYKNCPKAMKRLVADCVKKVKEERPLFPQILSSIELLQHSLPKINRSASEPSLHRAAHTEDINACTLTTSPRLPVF
Chain of PRKCQ (PKC theta) (Q04759 whole entry): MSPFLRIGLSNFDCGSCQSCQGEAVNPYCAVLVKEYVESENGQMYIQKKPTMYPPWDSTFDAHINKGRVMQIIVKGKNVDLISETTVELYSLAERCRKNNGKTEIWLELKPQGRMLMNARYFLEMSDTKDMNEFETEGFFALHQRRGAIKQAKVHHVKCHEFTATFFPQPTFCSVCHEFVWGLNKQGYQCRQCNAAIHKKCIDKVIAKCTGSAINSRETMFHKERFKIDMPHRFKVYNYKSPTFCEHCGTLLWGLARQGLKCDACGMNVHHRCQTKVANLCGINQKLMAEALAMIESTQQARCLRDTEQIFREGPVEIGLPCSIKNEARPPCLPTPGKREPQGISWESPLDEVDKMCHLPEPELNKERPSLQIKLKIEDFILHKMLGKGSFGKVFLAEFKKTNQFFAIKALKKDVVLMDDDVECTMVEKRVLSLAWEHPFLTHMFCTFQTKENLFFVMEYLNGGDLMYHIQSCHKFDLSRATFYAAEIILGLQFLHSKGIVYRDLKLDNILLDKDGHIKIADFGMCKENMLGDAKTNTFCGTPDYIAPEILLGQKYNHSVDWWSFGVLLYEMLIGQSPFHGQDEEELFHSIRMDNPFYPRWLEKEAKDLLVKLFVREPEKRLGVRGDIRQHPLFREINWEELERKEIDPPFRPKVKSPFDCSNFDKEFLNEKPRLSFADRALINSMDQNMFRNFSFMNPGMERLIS
Chain of ERBB2 (HER2) (P04626 23-1255): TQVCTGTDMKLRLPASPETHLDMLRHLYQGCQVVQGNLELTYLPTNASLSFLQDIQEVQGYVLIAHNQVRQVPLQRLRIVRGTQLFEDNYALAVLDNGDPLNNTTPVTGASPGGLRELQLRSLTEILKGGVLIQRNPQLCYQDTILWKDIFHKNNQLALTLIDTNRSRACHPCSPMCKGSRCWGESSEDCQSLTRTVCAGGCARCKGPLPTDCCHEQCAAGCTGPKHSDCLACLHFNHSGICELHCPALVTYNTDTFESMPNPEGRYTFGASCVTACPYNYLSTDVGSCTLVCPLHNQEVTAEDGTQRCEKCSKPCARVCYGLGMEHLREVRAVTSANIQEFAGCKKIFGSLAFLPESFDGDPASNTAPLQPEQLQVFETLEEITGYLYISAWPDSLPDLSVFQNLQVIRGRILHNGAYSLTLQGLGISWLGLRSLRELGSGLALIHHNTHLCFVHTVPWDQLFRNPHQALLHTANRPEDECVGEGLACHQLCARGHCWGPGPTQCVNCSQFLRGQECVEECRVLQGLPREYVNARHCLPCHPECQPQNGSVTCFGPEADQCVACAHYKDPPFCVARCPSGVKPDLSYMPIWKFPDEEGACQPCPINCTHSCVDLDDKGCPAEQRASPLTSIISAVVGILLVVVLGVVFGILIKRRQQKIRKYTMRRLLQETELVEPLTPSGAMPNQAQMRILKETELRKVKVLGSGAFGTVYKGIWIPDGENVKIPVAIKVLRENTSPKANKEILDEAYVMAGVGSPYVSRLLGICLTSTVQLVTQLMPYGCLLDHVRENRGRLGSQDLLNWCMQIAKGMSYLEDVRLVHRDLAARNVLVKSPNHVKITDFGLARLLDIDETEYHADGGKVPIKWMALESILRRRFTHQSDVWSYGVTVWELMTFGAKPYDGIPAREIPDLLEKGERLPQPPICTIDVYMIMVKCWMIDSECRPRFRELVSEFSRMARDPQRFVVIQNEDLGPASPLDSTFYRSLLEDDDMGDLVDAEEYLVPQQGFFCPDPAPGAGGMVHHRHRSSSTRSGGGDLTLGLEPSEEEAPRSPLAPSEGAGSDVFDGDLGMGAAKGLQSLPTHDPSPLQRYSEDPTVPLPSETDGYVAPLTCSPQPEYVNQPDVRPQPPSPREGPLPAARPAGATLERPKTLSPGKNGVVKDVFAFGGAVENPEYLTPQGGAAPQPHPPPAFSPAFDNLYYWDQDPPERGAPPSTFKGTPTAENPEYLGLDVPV
Chain of LCK (P06239 whole entry): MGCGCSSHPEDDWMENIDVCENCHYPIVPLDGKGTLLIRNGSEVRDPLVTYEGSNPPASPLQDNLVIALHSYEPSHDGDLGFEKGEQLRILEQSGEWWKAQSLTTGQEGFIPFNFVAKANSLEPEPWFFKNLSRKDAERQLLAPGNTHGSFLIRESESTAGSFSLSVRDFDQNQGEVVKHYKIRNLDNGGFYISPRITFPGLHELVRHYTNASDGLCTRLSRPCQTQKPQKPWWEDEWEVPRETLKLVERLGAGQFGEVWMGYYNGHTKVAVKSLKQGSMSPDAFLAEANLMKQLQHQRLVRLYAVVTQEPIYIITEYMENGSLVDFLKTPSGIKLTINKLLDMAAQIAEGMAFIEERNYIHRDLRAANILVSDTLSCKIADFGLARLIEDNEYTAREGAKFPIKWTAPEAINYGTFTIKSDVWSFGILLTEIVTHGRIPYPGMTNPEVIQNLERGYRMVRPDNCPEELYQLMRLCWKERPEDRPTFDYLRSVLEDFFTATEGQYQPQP
Chain of PIK3CA/PIK3R1 (P42336 whole entry, canonical isoform): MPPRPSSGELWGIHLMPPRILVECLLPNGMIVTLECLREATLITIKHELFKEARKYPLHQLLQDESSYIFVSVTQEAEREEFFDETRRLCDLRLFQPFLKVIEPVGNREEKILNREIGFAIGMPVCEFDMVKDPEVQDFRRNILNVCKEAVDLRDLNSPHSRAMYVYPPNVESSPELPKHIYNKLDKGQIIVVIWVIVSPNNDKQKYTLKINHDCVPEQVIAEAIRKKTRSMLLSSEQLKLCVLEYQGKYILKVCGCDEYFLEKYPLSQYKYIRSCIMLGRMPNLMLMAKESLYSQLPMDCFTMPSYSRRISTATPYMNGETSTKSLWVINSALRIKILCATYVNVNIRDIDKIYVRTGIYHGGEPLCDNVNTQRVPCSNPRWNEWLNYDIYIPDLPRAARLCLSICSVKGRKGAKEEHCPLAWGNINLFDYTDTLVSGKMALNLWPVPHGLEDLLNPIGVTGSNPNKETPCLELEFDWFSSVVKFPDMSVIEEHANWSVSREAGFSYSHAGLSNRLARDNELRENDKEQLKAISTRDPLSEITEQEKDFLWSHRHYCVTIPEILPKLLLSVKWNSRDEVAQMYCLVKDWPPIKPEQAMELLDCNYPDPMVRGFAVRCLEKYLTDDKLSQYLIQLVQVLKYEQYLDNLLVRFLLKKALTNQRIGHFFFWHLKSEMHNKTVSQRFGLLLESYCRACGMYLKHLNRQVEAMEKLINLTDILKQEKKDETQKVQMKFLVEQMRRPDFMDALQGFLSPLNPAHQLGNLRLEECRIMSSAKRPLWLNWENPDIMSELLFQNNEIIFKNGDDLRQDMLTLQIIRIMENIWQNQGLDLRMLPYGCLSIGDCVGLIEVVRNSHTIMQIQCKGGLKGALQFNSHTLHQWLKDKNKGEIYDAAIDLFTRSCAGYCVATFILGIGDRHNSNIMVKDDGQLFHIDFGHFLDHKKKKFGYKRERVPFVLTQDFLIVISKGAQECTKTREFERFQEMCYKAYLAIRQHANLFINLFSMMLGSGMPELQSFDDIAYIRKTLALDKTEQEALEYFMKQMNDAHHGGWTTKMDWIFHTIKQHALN
Chain of PIK3CA/PIK3R1 (P27986 whole entry partner, canonical isoform): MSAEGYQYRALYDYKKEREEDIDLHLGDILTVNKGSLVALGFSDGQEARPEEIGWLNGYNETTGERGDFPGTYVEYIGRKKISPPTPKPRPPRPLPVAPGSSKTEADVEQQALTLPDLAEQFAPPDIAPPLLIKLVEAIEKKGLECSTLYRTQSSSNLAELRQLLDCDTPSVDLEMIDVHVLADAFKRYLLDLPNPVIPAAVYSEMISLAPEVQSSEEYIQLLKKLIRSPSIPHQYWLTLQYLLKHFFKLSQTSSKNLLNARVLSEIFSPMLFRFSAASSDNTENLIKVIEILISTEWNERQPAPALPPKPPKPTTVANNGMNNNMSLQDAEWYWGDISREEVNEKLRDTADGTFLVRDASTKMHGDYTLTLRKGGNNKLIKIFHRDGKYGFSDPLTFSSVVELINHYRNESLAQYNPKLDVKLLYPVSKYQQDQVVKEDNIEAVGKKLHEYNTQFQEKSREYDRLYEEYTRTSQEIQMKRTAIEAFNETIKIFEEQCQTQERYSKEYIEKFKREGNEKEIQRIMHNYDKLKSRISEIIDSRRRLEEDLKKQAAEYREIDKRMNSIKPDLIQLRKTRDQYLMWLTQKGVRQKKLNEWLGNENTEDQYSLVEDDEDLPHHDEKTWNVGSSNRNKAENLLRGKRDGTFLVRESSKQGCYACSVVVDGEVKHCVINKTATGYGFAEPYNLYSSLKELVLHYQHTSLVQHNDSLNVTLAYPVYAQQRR

Compound	inhibition at 0.1 µM (PIK3CA/PIK3R1) [%]	inhibition at 0.5 µM (PIK3CA/PIK3R1) [%]	inhibition at 0.05 µM (PRKD1 (PKC mu)) [%]	inhibition at 0.05 µM (PRKCG (PKC gamma)) [%]	inhibition at 0.1 µM (IGF1R) [%]	inhibition at 0.5 µM (IGF1R) [%]	inhibition at 0.5 µM (RAF1 (cRAF) Y340D Y341D) [%]	inhibition at 0.1 µM (LCK) [%]	inhibition at 0.5 µM (LCK) [%]	inhibition at 0.1 µM (SYK) [%]	inhibition at 0.5 µM (SYK) [%]	inhibition at 0.1 µM (AURKC (Aurora C)) [%]	inhibition at 0.5 µM (AURKC (Aurora C)) [%]	inhibition at 0.05 µM (PRKCQ (PKC theta)) [%]	inhibition at 0.1 µM (FRAP1 (mTOR)) [%]	inhibition at 0.5 µM (FRAP1 (mTOR)) [%]	inhibition at 0.1 µM (YES1) [%]	inhibition at 0.5 µM (YES1) [%]	inhibition at 0.5 µM (ERBB2 (HER2)) [%]	inhibition at 0.1 µM (PTK2 (FAK)) [%]	further results
O=c1c2ccccc2[se]n1-c1nc(NC2CCCCC2)c2nc[nH]c2n1 [Compound 1]	0	61	5	45	0	12	4	7	14	6	8	2	10	62	1	2	22	47	0	5	inhibition at 0.5 µM (PTK2 (FAK)): 7%; inhibition at 0.1 µM (FLT1 (VEGFR1)): 0%; inhibition at 0.5 µM (FLT1 (VEGFR1)): 1%; inhibition at 0.05 µM (PRKCD (PKC delta)): 0%
O=c1c2ccccc2[se]n1-c1nc(NC2CC[Se]C2)c2nc[nH]c2n1 (stereo not drawn) [Compound 2]	0	62				11	0	10	14	2	9	0	11			5	22	35	0	5	inhibition at 0.5 µM (PTK2 (FAK)): 7%; inhibition at 0.5 µM (FLT1 (VEGFR1)): 5%
C[C@@H]1C(Nc2nc(-n3[se]c4ccccc4c3=O)nc3[nH]cnc23)C[C@H]2C[C@@H]1C2(C)C (stereo partly drawn) [Compound 3]	12	53				13	10	0	16	0	24	0	7			1	17	53	2	0	inhibition at 0.5 µM (PTK2 (FAK)): 8%; inhibition at 0.5 µM (FLT1 (VEGFR1)): 7%
O=c1c2ccccc2[se]n1-c1nc(N[C@H]2CC[Se]C2)c2nc[nH]c2n1 [Compound 4]	0		7	47	4			8		6		0		98	8		24			1	inhibition at 0.1 µM (FLT1 (VEGFR1)): 4%; inhibition at 0.05 µM (PRKCD (PKC delta)): 0%
O=C1c2ccccc2CN1c1nc(NC2CCCCC2)c2nc[nH]c2n1 [SLLN-6C, reference compound]	0		6	0	0			8		2		0		0	0		5			3	inhibition at 0.1 µM (FLT1 (VEGFR1)): 0%; inhibition at 0.05 µM (PRKCD (PKC delta)): 0%
